The record followed here is patent US8501446B2 (Vertex Pharmaceuticals Incorporated, priority 2004, dated 2013).

Some results are limits rather than exact numbers.

Format in all cases: biochemical
One experiment deals with T1, ROCK I (AA 6-553) (Homo sapiens, UniProt Q13464).
T1 construct: ROCK I (AA 6-553)
The experiment is described as follows: ROCK inhibition assay, standard coupled enzyme system ("Enzyme"). Particulars: enzyme-linked assay. Summed up:
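ROCK I (AA 6-553) at 45 nM and 30 °C with 45 μM ATP and 200 μM peptide, in 100 mM HEPES pH 7.5, 10 mM MgCl2, 25 mM NaCl, 2 mM DTT, 1.5% DMSO. ADP output read by a PK/LDH coupled system: 2.5 mM PEP, 350 μM NADH, 30 μg/ml PK, 10 μg/ml LDH.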

In experiment [1] the target is T2, full length Aurora-A (AA 1-403) (Homo sapiens, UniProt O14965).
T2 construct: full length Aurora-A (AA 1-403)
T2 sequence (O14965 1-403): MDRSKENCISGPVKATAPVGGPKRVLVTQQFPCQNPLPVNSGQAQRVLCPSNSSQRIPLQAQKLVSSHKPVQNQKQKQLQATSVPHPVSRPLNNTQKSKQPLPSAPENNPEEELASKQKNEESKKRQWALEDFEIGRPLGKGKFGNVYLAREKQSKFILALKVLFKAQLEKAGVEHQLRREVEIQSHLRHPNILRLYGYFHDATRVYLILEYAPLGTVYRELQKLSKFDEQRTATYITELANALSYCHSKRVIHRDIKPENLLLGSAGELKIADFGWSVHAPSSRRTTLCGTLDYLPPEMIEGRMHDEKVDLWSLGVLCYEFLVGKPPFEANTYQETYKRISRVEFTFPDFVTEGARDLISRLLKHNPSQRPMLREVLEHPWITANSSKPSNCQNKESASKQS
Kind of experiment: Aurora-A inhibition assay, standard coupled enzyme system. The conditions noted are these: average Ki if more than one value determined.

A further experiment concerns the target T3, Aurora-C (Homo sapiens, UniProt Q9UQB9).
T3 sequence (Q9UQB9 1-309): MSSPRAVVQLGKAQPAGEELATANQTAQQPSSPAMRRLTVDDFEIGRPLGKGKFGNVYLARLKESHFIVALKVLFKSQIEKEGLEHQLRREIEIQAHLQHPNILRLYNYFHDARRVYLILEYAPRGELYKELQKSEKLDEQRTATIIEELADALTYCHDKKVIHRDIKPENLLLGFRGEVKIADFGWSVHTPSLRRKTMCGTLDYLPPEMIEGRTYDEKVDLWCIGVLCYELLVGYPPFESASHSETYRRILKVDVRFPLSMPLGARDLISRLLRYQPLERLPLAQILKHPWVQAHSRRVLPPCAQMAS
Kind of experiment: Aurora-C inhibition assay, coupled enzyme system as for Aurora-A. Particulars: average Ki if more than one value determined. As for the experimental part:
Compounds were screened for their ability to inhibit full length Aurora-A (AA 1-403) activity using a standard coupled enzyme system (Fox et al., Protein Sci. 7, pp. 2249 (1998)). Reactions were carried out in a solution containing 100 mM HEPES (pH 7.5), 10 mM MgCl2, 25 mM NaCl, 300 μM NADH, 1 mM DTT and 3% DMSO. Final substrate concentrations in the assay were 200 μM ATP (Sigma Chemicals, St Louis, Mo.) and 800 μM peptide (LRRASLG, American Peptide, Sunnyvale, Calif.). Reactions were carried out at 30° C. and 35 nM Aurora-A. Final concentrations of the components of the coupled enzyme system were 2.5 mM phosphoenolpyruvate, 200 μM NADH, 60 μg/ml pyruvate kinase and 20 μg/ml lactate dehydrogenase.
(§1) An assay stock buffer solution was prepared containing all of the reagents listed above with the exception of ATP and the test compound of interest. The assay stock buffer solution (60 μl) was incubated in a 96 well plate with 2 μl of the test compound of interest at final concentrations spanning 0.002 μM to 30 μM at 30° C. for 10 min. Typically, a 12 point titration was conducted by preparing serial dilutions (from 1 mM compound stocks) with DMSO of the test compounds in daughter plates. The reaction was initiated by the addition of 5 μl of ATP (final concentration 200 μM). Rates of reaction were obtained using a Molecular Devices Spectramax plate reader (Sunnyvale, Calif.) over 10 min at 30° C. The Ki values were determined from the rate data as a function of inhibitor concentration using computerized nonlinear regression (Prism 3.0, Graphpad Software, San Diego, Calif.). Aurora-C activity was screened in a similar manner using Aurora-C protein. Aurora-B activity was screened using a radioactive assay, such as described in Examples 1 and 2, but using Aurora-B protein.

The next experiment has as its target Aurora-B (Homo sapiens, UniProt Q96GD4). Kind of experiment: Aurora-B inhibition assay, radioactive assay. Particulars: average Ki if more than one value determined. Here is the method: Compounds were screened for their ability to inhibit JAK3 using a standard radioactive enzyme assay. 1.5 μL/well of a DMSO stock containing serial dilutions of a compound of the present invention (concentrations ranging from 667 μM to 46 nM) was placed in a 96 well polycarbonate plate. 50 μL per well of kinase buffer (100 mM HEPES (pH 7.4), 10 mM MgCl2, 25 mM NaCl, 1 mM DTT, and 0.01% bovine serum albumin (BSA)) containing 2 μM poly(Glu)4Tyr and 10 μM ATP was also added to the plate. To initiate the reaction, 50 μL kinase buffer containing 2 nM JAK3 enzyme was added. Final ATP concentration was 5 μM [γ-^33P] ATP (200 μCi ^33P ATP/μmol ATP (Perkin Elmer, Cambridge, Mass.). After 20 minutes at room temperature (25° C.), the reaction was stopped by adding 50 μL 20% trichloroacetic acid (TCA)/0.4 mM ATP to each well. The entire content of each well was then transferred to a 96 well glass fiber filter plate using a TomTek Cell Harvester. After washing, 60 μL scintillation fluid was added and ^33P incorporation detected using a Perkin Elmer TopCount. After removing mean background values for all of the data points the data was fit using Prism software to obtain a Ki(app). Inhibition of JAK2 was measured as above except that final poly(Glu)4Tyr concentration was 15 μM and final ATP concentration was 12 μM.
Some compounds were screened for their ability to inhibit ROCK using a standard radioactive enzyme assay. Assays were carried out in a solution containing 100 mM HEPES (pH 7.5), 10 mM MgCl2, 25 mM NaCl, 2 mM DTT, and 1.5% DMSO. Final substrate concentrations in the assay were 13 μM [γ-^33P] ATP (25 mCi ^33P ATP/mmol ATP, Perkin Elmer, Cambridge, Mass./Sigma Chemicals, St Louis, Mo.) and 27 μM Myelin Basic Protein (MBP). Final enzyme concentration in the assay was 5 nM ROCK. Assays were carried out at room temperature. 1.5 μl of DMSO stock containing serial dilutions of the compound of the present invention (concentrations ranging from 10 μM to 2.6 nM) was placed in a 96 well plate. 50 μl of Solution 1 (100 mM HEPES (pH 7.5), 10 mM MgCl2, […]) was added to the plate. The reaction was initiated by addition of 50 μl of Solution 2 (100 mM HEPES (pH 7.5), 10 mM MgCl2, 4 mM DTT, […] and 10 nM ROCK). After 2 hours the reaction was quenched with 50 μL of 30% trichloroacetic acid (TCA, Fisher) containing 9 mM ATP. Transfer of 140 μL of the quenched reaction to a glass fiber filter plate (Corning, Cat. No. 3511) was followed by washing 3 times with 5% TCA. 50 μL of Optima Gold scintillation fluid (Perkin Elmer) was added and the plates were counted on a Top Count (Perkin Elmer). After removing mean background values for all of the data points the data was fit using Prism software to obtain a Ki(app).
as §1

For the next experiment, the target named is JAK2 (Homo sapiens, UniProt O60674). The experiment is described as follows: JAK2 inhibition assay (radioactive enzyme assay, as for JAK3). The conditions noted are these: average Ki if more than one value determined. Summed up: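 Both kinases: poly(Glu)4Tyr substrate in 100 mM HEPES pH 7.4, 10 mM MgCl2, 1 mM DTT. Run 20 min at 25° C, TCA stop, filter-bound ³³P counted, Ki(app) fitted after background subtraction. JAK3: final [γ-³³P]ATP 5 μM, enzyme added as 2 nM solution. JAK2: final poly(Glu)4Tyr 15 μM, final ATP 12 μM.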
JAK2, sequence (O60674 whole entry, species assumed): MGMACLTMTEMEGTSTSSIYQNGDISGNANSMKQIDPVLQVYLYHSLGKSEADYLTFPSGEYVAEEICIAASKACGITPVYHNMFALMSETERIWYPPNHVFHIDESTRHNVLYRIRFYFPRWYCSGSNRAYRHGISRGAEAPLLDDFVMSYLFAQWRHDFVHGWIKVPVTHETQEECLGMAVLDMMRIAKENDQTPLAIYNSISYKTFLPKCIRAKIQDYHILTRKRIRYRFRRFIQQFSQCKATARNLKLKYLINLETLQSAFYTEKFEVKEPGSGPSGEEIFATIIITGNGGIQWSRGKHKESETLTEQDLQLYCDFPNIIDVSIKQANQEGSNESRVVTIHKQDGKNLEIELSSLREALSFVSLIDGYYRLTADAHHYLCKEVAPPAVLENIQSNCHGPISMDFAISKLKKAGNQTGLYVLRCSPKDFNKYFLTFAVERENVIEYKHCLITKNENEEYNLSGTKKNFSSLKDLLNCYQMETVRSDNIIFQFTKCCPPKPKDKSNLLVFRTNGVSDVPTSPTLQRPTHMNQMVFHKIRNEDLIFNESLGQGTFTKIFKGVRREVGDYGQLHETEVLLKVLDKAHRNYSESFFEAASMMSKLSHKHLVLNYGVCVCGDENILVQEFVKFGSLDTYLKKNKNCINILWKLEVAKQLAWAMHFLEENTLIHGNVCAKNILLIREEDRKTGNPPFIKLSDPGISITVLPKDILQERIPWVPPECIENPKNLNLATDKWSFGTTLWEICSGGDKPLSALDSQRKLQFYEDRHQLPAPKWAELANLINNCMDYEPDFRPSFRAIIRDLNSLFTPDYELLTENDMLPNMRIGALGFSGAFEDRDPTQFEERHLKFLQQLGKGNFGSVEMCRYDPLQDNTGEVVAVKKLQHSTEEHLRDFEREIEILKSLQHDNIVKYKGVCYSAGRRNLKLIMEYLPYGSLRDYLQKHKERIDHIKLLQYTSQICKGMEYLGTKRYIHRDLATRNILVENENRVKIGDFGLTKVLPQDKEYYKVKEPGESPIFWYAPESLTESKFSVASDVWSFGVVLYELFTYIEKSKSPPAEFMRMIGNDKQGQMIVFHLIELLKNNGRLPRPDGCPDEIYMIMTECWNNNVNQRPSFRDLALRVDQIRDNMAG

T1 sequence (Q13464 6-553, species assumed): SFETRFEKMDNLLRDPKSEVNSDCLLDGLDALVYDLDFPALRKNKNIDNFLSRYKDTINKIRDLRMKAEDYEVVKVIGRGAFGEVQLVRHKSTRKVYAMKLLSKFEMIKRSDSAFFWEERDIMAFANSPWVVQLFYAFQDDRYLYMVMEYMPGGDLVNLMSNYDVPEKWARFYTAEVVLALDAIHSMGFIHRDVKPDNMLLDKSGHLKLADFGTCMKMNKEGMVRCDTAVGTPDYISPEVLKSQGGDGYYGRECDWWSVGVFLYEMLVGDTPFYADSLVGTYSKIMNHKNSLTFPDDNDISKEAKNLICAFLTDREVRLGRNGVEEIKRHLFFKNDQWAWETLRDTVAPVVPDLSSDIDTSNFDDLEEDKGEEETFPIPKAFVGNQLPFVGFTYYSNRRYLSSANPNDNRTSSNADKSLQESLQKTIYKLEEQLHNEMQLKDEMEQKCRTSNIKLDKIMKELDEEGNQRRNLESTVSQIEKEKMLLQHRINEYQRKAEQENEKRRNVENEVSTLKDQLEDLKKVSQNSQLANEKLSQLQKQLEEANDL
Aurora-B, sequence (Q96GD4 whole entry): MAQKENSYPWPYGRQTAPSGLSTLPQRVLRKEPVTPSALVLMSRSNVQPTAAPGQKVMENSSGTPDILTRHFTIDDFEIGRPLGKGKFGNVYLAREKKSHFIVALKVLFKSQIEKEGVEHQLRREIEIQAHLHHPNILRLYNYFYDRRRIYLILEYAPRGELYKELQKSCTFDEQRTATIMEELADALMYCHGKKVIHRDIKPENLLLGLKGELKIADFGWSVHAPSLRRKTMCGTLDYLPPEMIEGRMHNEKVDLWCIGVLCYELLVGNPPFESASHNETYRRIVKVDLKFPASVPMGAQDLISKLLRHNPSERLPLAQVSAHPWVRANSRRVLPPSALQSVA

Take `C#Cc1cnc(-c2c[nH]c3ncc(Cl)cc23)nc1N[C@@H](C)C(=O)NCC(F)(F)F` [Compound 411]: the inhibition constant Ki on ROCK I (AA 6-553) was 500 to 5000 nM; in experiment [1] it was less than 500 nM; on Aurora-C, less than 500 nM.

Take `C[C@H](Nc1nc(-c2c[nH]c3ncc(Cl)cc23)ncc1F)C(=O)NCCN1CCNC1=O` [Compound 441]: the Ki (at ROCK I (AA 6-553); at Aurora-B; at JAK2; in experiment [1]) was 500 to 5000 nM in each case.

With `C[C@H](Nc1nc(-c2c[nH]c3ncc(Cl)cc23)ncc1F)c1cccc(NC(=O)OC(C)(C)C)c1` [Compound 331], the Ki on ROCK I (AA 6-553) was 500 to 5000 nM; in experiment [1] it was less than 500 nM; at Aurora-C, less than 500 nM.

As to `C[C@H](Nc1cccc(-c2c[nH]c3ncc(Cl)cc23)n1)c1ccccc1` [Compound 252], the inhibition constant (Ki) at ROCK I (AA 6-553) is 500 to 5000 nM; in experiment [1] it was less than 500 nM; on Aurora-C, less than 500 nM.

Regarding `C[C@H](Nc1nc(-c2c[nH]c3ncc(Cl)cc23)ncc1F)C(=O)NCCCn1ccnc1` [Compound 442], the Ki is 500 to 5000 nM on ROCK I (AA 6-553), 500 to 5000 nM on Aurora-B, 500 to 5000 nM at JAK2 and less than 500 nM in experiment [1].

For `C[C@@H](Nc1cccc(-c2c[nH]c3ncc(Cl)cc23)n1)c1ccccc1` [Compound 260], the results for the Ki (at ROCK I (AA 6-553); in experiment [1]; at Aurora-C) were 500 to 5000 nM, less than 500 nM and less than 500 nM, respectively.

Regarding `O=C(CNc1nc(-c2c[nH]c3ncc(Cl)cc23)ncc1F)NCC(F)(F)F` [Compound 400], the inhibitory constant (Ki) at ROCK I (AA 6-553) was 500 to 5000 nM; in experiment [1], less than 500 nM; on Aurora-C, less than 500 nM.

With `COc1cnc(-c2c[nH]c3ncc(Cl)cc23)nc1N[C@@H](C)C(=O)NCC(F)(F)F` [Compound 407], the Ki on ROCK I (AA 6-553) was 500 to 5000 nM; in experiment [1], less than 500 nM; at Aurora-C it was less than 500 nM.

`C[C@H](Nc1nc(-c2c[nH]c3ncc(Cl)cc23)ncc1F)C(=O)NC1CCCCC1` [Compound 406]: the Ki is 500 to 5000 nM on ROCK I (AA 6-553), 500 to 5000 nM on Aurora-B and less than 500 nM in experiment [1].

For `CCc1cnc(Cl)nc1-c1c[nH]c2ncc(Cl)cc12` [Compound 428], the Ki on ROCK I (AA 6-553) is 500 to 5000 nM; at Aurora-B, 500 to 5000 nM; in experiment [1], less than 500 nM.

With `Cc1cccc(C)c1Nc1nc(-c2c[nH]c3ncc(Cl)cc23)ncc1F` [Compound 300], the Ki (at ROCK I (AA 6-553); at Aurora-B; in experiment [1]) was less than 500 nM throughout.

Regarding `Fc1cnc(-c2c[nH]c3ncc(Cl)cc23)nc1N[C@H]1CCc2ccccc21` [Compound 302], the Ki on ROCK I (AA 6-553) was 500 to 5000 nM; at Aurora-B, less than 500 nM; in experiment [1], less than 500 nM.
